Laboratory results published in ChEMBL document CHEMBL1151167, “New marine sesquiterpenoids and diterpenoids from the Okinawan soft coral Clavularia koellikeri” (2004).
Converted amounts (≈) assume the structure as drawn.

Experiments:
Type in all cases: functional
[1] = system: SF-539; experiment: Cytotoxicity against human SF539 cells after 48 hrs by SRB assay; details: SF-539, 48 h
[2] = system: NCI-H522; experiment: Cytotoxicity against human NCI-H522 cells after 48 hrs by SRB assay; details: NCI-H522, 48 h
[3] = system: LOX IMVI; experiment: Cytotoxicity against human LOXIMVI cells after 48 hrs by SRB assay
[4] = system: SNB-75; experiment: Cytotoxicity against human SNB75 cells after 48 hrs by SRB assay; details: SNB-75, 48 h
[5] = system: MKN-74; experiment: Cytotoxicity against human MKN74 cells after 48 hrs by SRB assay; details: MKN-74, 48 h

C/C1=C\CC2=CC[C@@H](C(C)C)[C@]2(C)C[C@@H](O)/C(C)=C/CC1
GI50 [1]: 4.9 µg/mL (≈ 17 µM)
GI50 [2]: 5.2 µg/mL (≈ 18 µM)
GI50 [3]: 4.9 µg/mL (≈ 17 µM)
GI50 [4]: 4.9 µg/mL (≈ 17 µM)
GI50 [5]: 5.2 µg/mL (≈ 18 µM)
